Measured values reported in ChEMBL document CHEMBL3352398, “2-(2-Bromophenyl)-formononetin and 2-heptyl-formononetin are PPARγ partial agonists and reduce lipid accumulation in 3T3-L1 adipocytes” (Bioorg Med Chem, 2014).
Activity calls are given as the source filed them. The rule behind the calls is not given here.

Key:
[1] = system: 3T3-L1; assay: Effect on adipogenesis in mouse 3T3L1 cells assessed as reduction in Fabp4 gene expression at 5 to 50 uM after 8 days by real time quantitative PCR analysis relative to vehicle-treated control; type: functional, cell-based
[2] = system: 3T3-L1; assay: Effect on adipogenesis in mouse 3T3L1 cells assessed as reduction in Fabp4 gene expression at 5 to 50 uM after 4 days by real time quantitative PCR analysis relative to vehicle-treated control; type: functional, cell-based
[3] = system: 3T3-L1; assay: Effect on adipogenesis in mouse 3T3L1 cells in DI media assessed as reduction in fat-laden mature adipocytes at 50 uM after 8 days by oil red o assay; type: functional, cell-based
[4] = system: 3T3-L1; assay: Effect on adipogenesis in mouse 3T3L1 cells assessed as reduction in Srebf1 gene expression at 5 to 50 uM after 4 days by real time quantitative PCR analysis relative to vehicle-treated control; type: functional, cell-based
[5] = system: 3T3-L1; assay: Effect on adipogenesis in mouse 3T3L1 cells assessed as reduction in Adipoq gene expression at 5 to 50 uM after 8 days by real time quantitative PCR analysis relative to vehicle-treated control; type: functional, cell-based
[6] = system: 3T3-L1; assay: Reduction of adipogenesis in mouse 3T3L1 cells assessed as decrease in lipid accumulation measured on day 8 by oil red o assay; type: functional, cell-based
[7] = target: T1, Peroxisome proliferator-activated receptor gamma (Homo sapiens, UniProt P37231); assay: Competitive binding to human GST-tagged PPAR-gamma by TR-FRET assay
T1 sequence (P37231 whole entry): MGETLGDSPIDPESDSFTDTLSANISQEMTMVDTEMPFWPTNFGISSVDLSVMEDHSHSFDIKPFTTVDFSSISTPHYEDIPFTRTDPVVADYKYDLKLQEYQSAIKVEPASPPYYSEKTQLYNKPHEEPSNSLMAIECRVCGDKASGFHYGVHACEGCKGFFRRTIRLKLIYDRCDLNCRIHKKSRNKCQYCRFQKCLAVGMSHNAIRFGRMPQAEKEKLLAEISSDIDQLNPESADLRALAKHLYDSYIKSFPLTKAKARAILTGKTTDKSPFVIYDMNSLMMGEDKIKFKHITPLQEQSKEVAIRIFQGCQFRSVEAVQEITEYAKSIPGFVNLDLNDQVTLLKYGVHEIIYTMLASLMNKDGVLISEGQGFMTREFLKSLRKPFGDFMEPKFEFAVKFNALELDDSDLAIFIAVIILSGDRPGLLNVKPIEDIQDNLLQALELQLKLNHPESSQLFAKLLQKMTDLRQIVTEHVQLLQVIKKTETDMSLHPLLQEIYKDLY

[8] = Cytotoxicity against mouse 3T3L1 cells assessed as effect on lactate dehydrogenase release at 5 to 50 uM measured on day 2; type: cell-based; settings: 3t3-l1, 50 µM
[9] = system: 3T3-L1; assay: Induction of lipolysis in mouse 3T3L1 cells assessed as up-regulation of Acox1 gene exression by real time-qPCR analysis; type: functional, cell-based
[10] = system: 3T3-L1; assay: Effect on adipogenesis in mouse 3T3L1 cells in DI media assessed as increase in fat-laden mature adipocytes at <25 uM after 8 days by oil red o assay; type: functional, cell-based
[11] = system: 3T3-L1; assay: Effect on adipogenesis in mouse 3T3L1 cells assessed as reduction in Pparg gene expression at 5 to 50 uM after 4 days by real time quantitative PCR analysis relative to vehicle-treated control; type: functional, cell-based
[12] = system: 3T3-L1; assay: Effect on adipogenesis in mouse 3T3L1 cells in DI media assessed as reduction in lipid accumulation at 50 uM measured on day 8 by fluorescence-based AdipoRed assay; type: functional, cell-based
[13] = system: 3T3-L1; assay: Effect on adipogenesis in mouse 3T3L1 cells assessed as increase in Srebf1 gene expression at 5 to 50 uM after 8 days by real time quantitative PCR analysis relative to vehicle-treated control; type: functional, cell-based
[14] = system: 3T3-L1; assay: Effect on adipogenesis in mouse 3T3L1 cells assessed as reduction in Adipoq gene expression at 5 to 50 uM after 4 days by real time quantitative PCR analysis relative to vehicle-treated control; type: functional, cell-based
[15] = Cytotoxicity against mouse 3T3L1 cells assessed as effect on lactate dehydrogenase release at 5 to 50 uM measured on day 8; type: cell-based; settings: 3t3-l1, 50 µM
[16] = Cytotoxicity against mouse 3T3L1 cells assessed as LDH release at 50 uM after 48 hrs; type: cell-based; settings: 3t3-l1, 48 h
[17] = target: T2, Peroxisome proliferator-activated receptor alpha (Homo sapiens) (UniProt Q07869); assay: Agonist activity at PPAR-alpha (unknown origin) by transactivation assay
T2 sequence (whole entry): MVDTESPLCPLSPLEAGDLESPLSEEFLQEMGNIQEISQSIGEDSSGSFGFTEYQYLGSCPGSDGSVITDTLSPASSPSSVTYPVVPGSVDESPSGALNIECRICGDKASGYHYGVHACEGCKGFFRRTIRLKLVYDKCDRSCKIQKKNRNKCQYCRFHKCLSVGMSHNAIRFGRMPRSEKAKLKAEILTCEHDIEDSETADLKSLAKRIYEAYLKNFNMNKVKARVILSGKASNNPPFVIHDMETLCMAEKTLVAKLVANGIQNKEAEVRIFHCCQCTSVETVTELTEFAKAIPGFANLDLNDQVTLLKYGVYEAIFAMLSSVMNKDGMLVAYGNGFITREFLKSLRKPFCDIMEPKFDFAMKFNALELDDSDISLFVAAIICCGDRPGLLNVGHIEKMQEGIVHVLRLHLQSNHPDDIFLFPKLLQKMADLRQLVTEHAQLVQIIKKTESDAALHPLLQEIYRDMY

[18] = Effect on adipogenesis in mature mouse 3T3L1 cells assessed as upregulation of Sirt1 gene expression; type: functional, cell-based; settings: 3T3-L1
[19] = system: 3T3-L1; assay: Reduction in lipogenesis in mouse 3T3L1 cells assessed as down regulation of Srebf1 gene exression by real time-qPCR analysis; type: functional, cell-based
[20] = target: T3, Peroxisome proliferator-activated receptor gamma (Homo sapiens) (UniProt P37231); assay: Competitive binding to human GST-tagged PPAR-gamma at <=100 uM by TR-FRET assay
T3 sequence (whole entry): T1 sequence (P37231 whole entry)

[21] = system: 3T3-L1; assay: Effect on adipogenesis in mouse 3T3L1 cells in DI media assessed as increase in lipid accumulation at <25 uM after 8 days by fluorescence-based AdipoRed assay; type: functional, cell-based
[22] = target: T4, Peroxisome proliferator-activated receptor delta (Homo sapiens) (UniProt Q03181); assay: Agonist activity at PPAR-delta (unknown origin) by transactivation assay
T4 sequence (whole entry): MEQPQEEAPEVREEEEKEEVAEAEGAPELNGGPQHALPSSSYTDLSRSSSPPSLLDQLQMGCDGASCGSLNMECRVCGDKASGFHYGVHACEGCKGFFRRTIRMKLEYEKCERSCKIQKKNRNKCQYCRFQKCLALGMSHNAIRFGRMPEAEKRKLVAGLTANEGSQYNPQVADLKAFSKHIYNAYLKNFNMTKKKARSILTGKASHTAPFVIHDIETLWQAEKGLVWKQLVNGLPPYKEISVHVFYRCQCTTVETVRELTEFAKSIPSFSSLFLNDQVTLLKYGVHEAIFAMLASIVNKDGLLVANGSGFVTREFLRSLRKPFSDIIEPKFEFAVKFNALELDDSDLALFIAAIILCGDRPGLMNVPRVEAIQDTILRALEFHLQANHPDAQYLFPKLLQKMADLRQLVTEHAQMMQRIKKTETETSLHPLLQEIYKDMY

[23] = system: 3T3-L1; assay: Reduction of adipogenesis in mouse 3T3L1 cells assessed as decrease in lipid accumulation measured on day 8 by fluorescence-based AdipoRed assay; type: functional, cell-based

In the case of `CCCCCCCc1oc2cc(O)ccc2c(=O)c1-c1ccc(OC)cc1`, the Activity [1] is reported as “inactive”, the Activity [2] is reported as “inactive” and the Activity [3] is reported as “Active”. For the same compound, the Activity [4] was “Dose-dependent effect”, the Activity [5] was “Dose-dependent effect” and the Activity [6] was “Dose-dependent effect”. For the same compound, the IC50 [7] was 5 µM, the Activity [8] was “Non-toxic” and the Activity [9] was “Active”. For the same compound, the Activity [10] was “Active”, the Activity [11] was “Dose-dependent effect” and the Activity [12] was “Active”. For the same compound, the Activity [13] was “Dose-dependent effect”, the Activity [14] was “Dose-dependent effect” and the Activity [15] was “Non-toxic”. For the same compound, the Activity [16] was “Toxic”, the Activity [17] was “inactive” and the Activity [18] was “inactive”. The Activity [19] was “Active”, the Activity [20] was “Active” and the Activity [21] was “Active”. For the same compound, the Activity [22] was “inactive” and the Activity [23] was “Dose-dependent effect”.
